Results: ChEMBL document CHEMBL3885861, “Open TG-GATES”

Organism: Rattus norvegicus
Assay: Open TG-GATES - Regimen: Daily Repeat
Type: toxicity, organism-based, Sprague-Dawley
Design: regimen Daily Repeat, gender Male, age 6 weeks
Conditions: in vivo, po, route gavage; for APTT / Bas / Eos / Fbg / Hb / Ht / Lym / MCH / MCHC / MCV / Mono / Neu / PT / Plat / RBC / Ret / WBC: tissue Blood; for KIDNEY_L / KIDNEY_R / KIDNEY_TOTAL: tissue Kidney; for LIVER: tissue Liver; for A/G / ALP / ALT / AST / BUN / CRE / Ca / Cl / DBIL / GLC / IP / K / LDH / Na / PL / RALB / TBIL / TC / TG / TP / gamma-GTP: tissue Plasma
[1] = 300 mg/kg, 72 h, dose level Middle, time 3 day
[2] = 300 mg/kg, […], dose level Middle, time 7 day
[3] = 300 mg/kg, […], dose level Middle, time 14 day
[4] = 300 mg/kg, […], dose level Middle, time 28 day
[5] = 1000 mg/kg, 72 h, dose level High, time 3 day
[6] = 1000 mg/kg, […], dose level High, time 7 day
[7] = 1000 mg/kg, […], dose level High, time 14 day
[8] = 1000 mg/kg, […], dose level High, time 28 day

## CCOc1ccc(NC(=O)CC(C)O)cc1 (centres undefined) [BUCETIN]
[1]
  TERMINAL_BW: 247.8 g
  APTT: 18.9 s
  Bas: 0%
  Eos: 1.2%
  Fbg: 291.2 mg/dL
  Hb: 13.1 g/dL
  Ht: 39.1%
  Lym: 72.8%
  MCH: 20.5 pg
  MCHC: 33.4%
  MCV: 61.3 fL
  Mono: 3.4%
  Neu: 21.6%
  PT: 14.2 s
  Plat: 123.5 x10_4/uL
  RBC: 638.8 x10_4/ul
  Ret: 6.8%
  WBC: 109.9 x10_2/uL
  KIDNEY_L: 1 g
  KIDNEY_R: 1 g
  KIDNEY_TOTAL: 2 g
  LIVER: 11.7 g
  A/G: 0.9
  ALP: 1855.6 IU/L
  ALT: 39.2 IU/L
  AST: 68.2 IU/L
  BUN: 15.2 mg/dL
  CRE: 0.2 mg/dL
  Ca: 10.8 mg/dL
  Cl: 104.8 meq/L
  DBIL: 0.024 mg/dL
  GLC: 184 mg/dL
  IP: 6.9 mg/dL
  K: 4.2 meq/L
  LDH: 99.6 IU/L
  Na: 143.4 meq/L
  PL: 164.2 mg/dL
  RALB: 2.7 g/dL
  TBIL: 0.052 mg/dL
  TC: 82.8 mg/dL
  TG: 116.2 mg/dL
  TP: 5.8 g/dL
  gamma-GTP: 1 IU/L
[2]
  TERMINAL_BW: 289.1 g
  APTT: 16.1 s
  Bas: 0%
  Eos: 1%
  Fbg: 278.6 mg/dL
  Hb: 13.4 g/dL
  Ht: 39.6%
  Lym: 74%
  MCH: 21.1 pg
  MCHC: 33.7%
  MCV: 62.5 fL
  Mono: 2.8%
  Neu: 21.6%
  PT: 14 s
  Plat: 120 x10_4/uL
  RBC: 634.2 x10_4/ul
  Ret: 6.8%
  WBC: 107.3 x10_2/uL
  KIDNEY_L: 1.2 g
  KIDNEY_R: 1.1 g
  KIDNEY_TOTAL: 2.3 g
  LIVER: 13.6 g
  A/G: 0.8
  ALP: 1676.6 IU/L
  ALT: 42.4 IU/L
  AST: 67.4 IU/L
  BUN: 15.8 mg/dL
  CRE: 0.2 mg/dL
  Ca: 11 mg/dL
  Cl: 105.2 meq/L
  DBIL: 0.018 mg/dL
  GLC: 190.6 mg/dL
  IP: 6.6 mg/dL
  K: 4.2 meq/L
  LDH: 115.2 IU/L
  Na: 143.8 meq/L
  PL: 178 mg/dL
  RALB: 2.7 g/dL
  TBIL: 0.04 mg/dL
  TC: 91.2 mg/dL
  TG: 131.2 mg/dL
  TP: 5.9 g/dL
  gamma-GTP: 1 IU/L
[3]
  TERMINAL_BW: 360.7 g
  APTT: 15.9 s
  Bas: 0%
  Eos: 1%
  Fbg: 312 mg/dL
  Hb: 14.4 g/dL
  Ht: 42.4%
  Lym: 75.2%
  MCH: 20.8 pg
  MCHC: 34.1%
  MCV: 61 fL
  Mono: 2.4%
  Neu: 21.2%
  PT: 13.8 s
  Plat: 113 x10_4/uL
  RBC: 695.6 x10_4/ul
  Ret: 4.7%
  WBC: 106.6 x10_2/uL
  KIDNEY_L: 1.4 g
  KIDNEY_R: 1.4 g
  KIDNEY_TOTAL: 2.7 g
  LIVER: 17.2 g
  A/G: 0.8
  ALP: 1729.4 IU/L
  ALT: 34.2 IU/L
  AST: 63 IU/L
  BUN: 15 mg/dL
  CRE: 0.2 mg/dL
  Ca: 11.2 mg/dL
  Cl: 104 meq/L
  DBIL: 0.02 mg/dL
  GLC: 189.4 mg/dL
  IP: 6.9 mg/dL
  K: 4 meq/L
  LDH: 72.8 IU/L
  Na: 143.4 meq/L
  PL: 179.2 mg/dL
  RALB: 2.8 g/dL
  TBIL: 0.048 mg/dL
  TC: 79.8 mg/dL
  TG: 208.6 mg/dL
  TP: 6.3 g/dL
  gamma-GTP: 1 IU/L
[4]
  TERMINAL_BW: 431.8 g
  APTT: 18.8 s
  Bas: 0%
  Eos: 1.4%
  Fbg: 274 mg/dL
  Hb: 14.7 g/dL
  Ht: 42.6%
  Lym: 74.6%
  MCH: 19.3 pg
  MCHC: 34.5%
  MCV: 56 fL
  Mono: 2.2%
  Neu: 20.6%
  PT: 14.1 s
  Plat: 106.2 x10_4/uL
  RBC: 760 x10_4/ul
  Ret: 3.5%
  WBC: 138.7 x10_2/uL
  KIDNEY_L: 1.6 g
  KIDNEY_R: 1.6 g
  KIDNEY_TOTAL: 3.2 g
  LIVER: 18.4 g
  A/G: 0.8
  ALP: 1081.4 IU/L
  ALT: 39 IU/L
  AST: 62.4 IU/L
  BUN: 15.2 mg/dL
  CRE: 0.3 mg/dL
  Ca: 11.2 mg/dL
  Cl: 104.8 meq/L
  DBIL: 0.028 mg/dL
  GLC: 188.8 mg/dL
  IP: 6.3 mg/dL
  K: 3.8 meq/L
  LDH: 78.8 IU/L
  Na: 145.4 meq/L
  PL: 170.6 mg/dL
  RALB: 2.8 g/dL
  TBIL: 0.07 mg/dL
  TC: 77.2 mg/dL
  TG: 188.2 mg/dL
  TP: 6.3 g/dL
  gamma-GTP: 1 IU/L
[5]
  TERMINAL_BW: 228.7 g
  APTT: 18.5 s
  Bas: 0%
  Eos: 0.8%
  Fbg: 270.2 mg/dL
  Hb: 12.8 g/dL
  Ht: 38.4%
  Lym: 72.6%
  MCH: 20.7 pg
  MCHC: 33.4%
  MCV: 61.9 fL
  Mono: 2.8%
  Neu: 22.6%
  PT: 14.1 s
  Plat: 123.8 x10_4/uL
  RBC: 620 x10_4/ul
  Ret: 2.9%
  WBC: 111.1 x10_2/uL
  KIDNEY_L: 1.1 g
  KIDNEY_R: 1 g
  KIDNEY_TOTAL: 2.1 g
  LIVER: 11.8 g
  A/G: 0.9
  ALP: 1511.6 IU/L
  ALT: 41.2 IU/L
  AST: 74 IU/L
  BUN: 15.4 mg/dL
  CRE: 0.2 mg/dL
  Ca: 10.6 mg/dL
  Cl: 106.8 meq/L
  DBIL: 0.028 mg/dL
  GLC: 168 mg/dL
  IP: 6.2 mg/dL
  K: 4.3 meq/L
  LDH: 76 IU/L
  Na: 144.6 meq/L
  PL: 161.4 mg/dL
  RALB: 2.6 g/dL
  TBIL: 0.06 mg/dL
  TC: 78.6 mg/dL
  TG: 102.2 mg/dL
  TP: 5.6 g/dL
  gamma-GTP: 1.2 IU/L
[6]
  TERMINAL_BW: 268.8 g
  APTT: 20.3 s
  Bas: 0%
  Eos: 1%
  Fbg: 270.6 mg/dL
  Hb: 12.7 g/dL
  Ht: 38.7%
  Lym: 67.2%
  MCH: 21 pg
  MCHC: 32.9%
  MCV: 64 fL
  Mono: 3.4%
  Neu: 27.6%
  PT: 14.3 s
  Plat: 126.9 x10_4/uL
  RBC: 606 x10_4/ul
  Ret: 9.2%
  WBC: 166.9 x10_2/uL
  KIDNEY_L: 1.1 g
  KIDNEY_R: 1.1 g
  KIDNEY_TOTAL: 2.3 g
  LIVER: 12.7 g
  A/G: 0.8
  ALP: 1387.6 IU/L
  ALT: 50 IU/L
  AST: 79.4 IU/L
  BUN: 16 mg/dL
  CRE: 0.2 mg/dL
  Ca: 10.9 mg/dL
  Cl: 106.2 meq/L
  DBIL: 0.032 mg/dL
  GLC: 180.8 mg/dL
  IP: 6.6 mg/dL
  K: 4.4 meq/L
  LDH: 97.4 IU/L
  Na: 144.4 meq/L
  PL: 162.8 mg/dL
  RALB: 2.8 g/dL
  TBIL: 0.08 mg/dL
  TC: 74.6 mg/dL
  TG: 133.4 mg/dL
  TP: 6 g/dL
  gamma-GTP: 1 IU/L
[7]
  TERMINAL_BW: 329.1 g
  APTT: 21.6 s
  Bas: 0.8%
  Eos: 0.6%
  Fbg: 295.4 mg/dL
  Hb: 12.9 g/dL
  Ht: 39.7%
  Lym: 69.2%
  MCH: 22.9 pg
  MCHC: 32.7%
  MCV: 70.1 fL
  Mono: 3%
  Neu: 26.2%
  PT: 14.3 s
  Plat: 126.3 x10_4/uL
  RBC: 567.8 x10_4/ul
  Ret: 10.4%
  WBC: 123.6 x10_2/uL
  KIDNEY_L: 1.3 g
  KIDNEY_R: 1.3 g
  KIDNEY_TOTAL: 2.7 g
  LIVER: 14.6 g
  A/G: 0.8
  ALP: 1241.8 IU/L
  ALT: 42.6 IU/L
  AST: 73.4 IU/L
  BUN: 14.2 mg/dL
  CRE: 0.2 mg/dL
  Ca: 10.8 mg/dL
  Cl: 105.8 meq/L
  DBIL: 0.036 mg/dL
  GLC: 170.4 mg/dL
  IP: 6.5 mg/dL
  K: 4.4 meq/L
  LDH: 97.8 IU/L
  Na: 143.6 meq/L
  PL: 150.8 mg/dL
  RALB: 2.8 g/dL
  TBIL: 0.1 mg/dL
  TC: 71.6 mg/dL
  TG: 91.2 mg/dL
  TP: 6.1 g/dL
  gamma-GTP: 1 IU/L
[8]
  TERMINAL_BW: 402.4 g
  APTT: 19.3 s
  Bas: 0.6%
  Eos: 1.2%
  Fbg: 278.2 mg/dL
  Hb: 14.3 g/dL
  Ht: 42.1%
  Lym: 78.2%
  MCH: 23.2 pg
  MCHC: 34%
  MCV: 68.4 fL
  Mono: 2.2%
  Neu: 17.4%
  PT: 14.4 s
  Plat: 102.2 x10_4/uL
  RBC: 618.4 x10_4/ul
  Ret: 8%
  WBC: 137.4 x10_2/uL
  KIDNEY_L: 1.6 g
  KIDNEY_R: 1.5 g
  KIDNEY_TOTAL: 3.1 g
  LIVER: 17.3 g
  A/G: 0.8
  ALP: 1352.6 IU/L
  ALT: 36.4 IU/L
  AST: 65 IU/L
  BUN: 16.8 mg/dL
  CRE: 0.3 mg/dL
  Ca: 11 mg/dL
  Cl: 104 meq/L
  DBIL: 0.042 mg/dL
  GLC: 182.2 mg/dL
  IP: 6.5 mg/dL
  K: 4 meq/L
  LDH: 93.4 IU/L
  Na: 143.8 meq/L
  PL: 155.8 mg/dL
  RALB: 2.9 g/dL
  TBIL: 0.1 mg/dL
  TC: 71.2 mg/dL
  TG: 117.2 mg/dL
  TP: 6.4 g/dL
  gamma-GTP: 1.4 IU/L
